Experiment in all cases: growth of human tumour cells (NCI), 48 h
Experiment [1] concerns M19-MEL.
Experiment [2] relates to RXF 631.
Experiment [3] concerns XF498.
For experiment [4], the system named is DMS-114.
For experiment [5], the system named is LXFL 529.
For experiment [6], the system named is SNB-78.
For experiment [7], the system named is DMS-273.
Experiment [8] deals with KM-20L2.
Experiment [9] concerns HOP-18.

Counter-ions that a name gives are not always drawn.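 Step 1: Grow cells in 96-well plates. Step 2: Expose to compound for 48 hours at 5 concentrations. Step 3: Interpolate endpoints linearly; if unreached, use highest concentration. GI50 is the concentration that inhibits growth by half.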 The source made the active and inactive calls. Cut-off read from the data, not from the text of the source: active = GI50 up to about 1.1 µM and inactive = higher.

As for `N#C/C(=C\c1cc(O)c(O)c(O)c1)C(N)=O`, the GI50 was 45.3 µM (inactive) in [1]; > 100 µM (inactive) in experiment [2]; > 100 µM (inactive) in experiment [3]; > 100 µM (inactive) in experiment [4]; > 100 µM (inactive) in [5]; > 100 µM (inactive) in [6]. In addition, the values for the GI50 in [7] and in experiment [8] were > 100 µM (inactive) and 74.1 µM (inactive), respectively.

For `S=c1sc2sc(=S)sc2s1`, the GI50 in experiment [1] was 28.6 µM (inactive); in [2] it was 18.7 µM (inactive); in experiment [9] it was > 100 µM (inactive); in experiment [5], 13.6 µM (inactive); in [6], 54.5 µM (inactive); in [7], > 100 µM (inactive). The GI50 in experiment [8] is 70.3 µM (inactive).

With `Cn1cc(C(=O)c2ccccc2)c2ccccc2c1=O`, the GI50 is > 100 µM (inactive) in experiment [1]; > 100 µM (inactive) in experiment [3]; > 100 µM (inactive) in experiment [4]; 89.3 µM (inactive) in [5]; > 100 µM (inactive) in experiment [7].

As for `Cc1cc2c(=O)c(C)n[nH]c2c(C#N)c1C`, the GI50 in experiment [1], in experiment [2], in [3], in experiment [9], in experiment [5] and in experiment [7] was > 100 µM (inactive) in each case. Moreover, the GI50 in [8] is > 100 µM (inactive).

Take `CSC1=Nc2ccccc2N=C(c2ccc(Cl)cc2)C1`: the GI50 in experiment [1] was 36.3 µM (inactive); in experiment [3] it was 36.5 µM (inactive); in experiment [9] it was 0.0877 µM (active); in experiment [5], 45 µM (inactive); in experiment [6], 52.5 µM (inactive); in experiment [8] it was 35.5 µM (inactive).

With `C/C(=N\NC(=S)N1CCC1)c1ccccn1`, the GI50 in experiment [1] is 0.0815 µM (active); in experiment [2], < 0.0262 µM (active); in experiment [3], 0.457 µM (active); in experiment [4], 0.01 µM (active); in [9], 0.929 µM (active); in experiment [5], 0.01 µM (active). In addition, the results for the GI50 in experiment [6], in experiment [7] and in experiment [8] were 2.2 µM (inactive), 0.01 µM (active) and 0.01 µM (active), respectively.

Regarding `C=C(C#N)C1OCC2OC(C)(C)OC21` (centres undefined), the GI50 in experiment [1] is 22 µM (inactive); in [2], 20.9 µM (inactive); in experiment [4], 22.7 µM (inactive); in experiment [9] it was 24.7 µM (inactive); in experiment [6], 19.7 µM (inactive); in experiment [7] it was 19.1 µM (inactive).

Regarding `CC1=NN(C(=O)CC(=O)Nc2ccccc2F)C(=O)C1/N=N/c1ccccc1[N+](=O)[O-]` (centres undefined), the GI50 in experiment [1] was 18.7 µM (inactive); in experiment [3], > 100 µM (inactive); in experiment [4] it was 57.9 µM (inactive); in [5], > 100 µM (inactive); in experiment [6], 87.3 µM (inactive); in [7] it was 49.9 µM (inactive). For the same compound, the GI50 in experiment [8] is > 100 µM (inactive).

Take `C=C1CN2CCc3c([nH]c4ccccc34)C2CC1CC(=O)N(C)C` (centres undefined): the GI50 in [1], in [3], in experiment [4], in experiment [9], in [5] and in experiment [7] was > 309 µM (inactive) in each case. Also, in experiment [8], the GI50 was > 309 µM (inactive).

Regarding `COC(=O)CC(NC(=O)OCc1ccccc1)C(C(C)=O)C(=O)OCc1ccccc1` (centres undefined), the GI50 is > 31.6 µM (inactive) in [1]; > 10 µM (inactive) in experiment [2]; > 10 µM (inactive) in experiment [3]; > 31.6 µM (inactive) in experiment [4]; > 31.6 µM (inactive) in experiment [9]; 5.48 µM (inactive) in experiment [5]. Besides, the GI50 in experiment [6], in experiment [7] and in experiment [8] was > 31.6 µM (inactive) in each case.

Turning to `CN(C)/C(=N/C(=O)Nc1ccccc1)SCc1ccccc1`, the GI50 in [1] is > 100 µM (inactive); in experiment [3] it was 6.43 µM (inactive); in experiment [4] it was 67.5 µM (inactive); in experiment [9], 64.9 µM (inactive); in experiment [5] it was > 100 µM (inactive); in experiment [6] it was > 100 µM (inactive). The GI50 in experiment [7] was > 100 µM (inactive).

`O=C(O)CC12C3C4C5C3C1C5C42` (centres undefined): the GI50 in [1], in experiment [3], in [4], in [5], in [6] and in [7] was > 100 µM (inactive) each time. Moreover, the GI50 in experiment [8] is > 100 µM (inactive).

As to `CN(C)CC1CCC(CN(C)C)C1=O` (centres undefined), the GI50 is 3.43 µM (inactive) in [1]; 5.69 µM (inactive) in experiment [3]; 5.92 µM (inactive) in experiment [4]; 18.8 µM (inactive) in [9]; 1.47 µM (inactive) in [5]; 5.83 µM (inactive) in [6]. For the same compound, the figures for the GI50 in experiment [7] and in experiment [8] were 17.1 µM (inactive) and 17.4 µM (inactive), respectively.

Take `CCCCCCCCCCCCCC1CCC(CC)N1` (centres undefined): the GI50 is 3.18 µM (inactive) in experiment [1]; 7 µM (inactive) in experiment [4]; 17.1 µM (inactive) in [9]; 18.2 µM (inactive) in experiment [5]; 13 µM (inactive) in [6]; 14.5 µM (inactive) in experiment [7]. For the same compound, in [8], the GI50 is 13.3 µM (inactive).

As for `CC(=O)OC1COC(n2ccc3cc(Br)c([N+](=O)[O-])cc32)C(OC(C)=O)C1OC(C)=O` (centres undefined), the GI50 in [1] was 29.4 µM (inactive); in experiment [2] it was 23.7 µM (inactive); in experiment [3] it was 14.3 µM (inactive); in [4], 27.7 µM (inactive); in experiment [9], > 10 µM (inactive); in experiment [5] it was 20 µM (inactive). Besides, the GI50 in experiment [6] is 20.8 µM (inactive); in experiment [7] it was 29.9 µM (inactive); in experiment [8], 31 µM (inactive).

`CC1(Cl)C(=O)NC(=O)N(C2CC(N=[N+]=[N-])C(CO)O2)C1N=[N+]=[N-]` (centres undefined): the GI50 in experiment [1], in experiment [2], in experiment [3], in experiment [4], in experiment [5] and in experiment [7] was > 100 µM (inactive) in each case. Besides, the GI50 in experiment [8] is > 100 µM (inactive).

With `CC(=O)/C(=C\c1ccco1)C(=O)Nc1ccccc1`, the GI50 in experiment [1], in experiment [3], in [4], in [9], in experiment [5] and in experiment [6] was > 100 µM (inactive) throughout.

As for `Cc1ccc(C(=O)Oc2ccccc2)cc1/N=N/N(C)C`, the GI50 in [1] is > 100 µM (inactive); in experiment [5] it was > 100 µM (inactive); in experiment [6] it was > 100 µM (inactive); in [7] it was 61.9 µM (inactive); in experiment [8] it was 38.3 µM (inactive).

For the compound `O=C1OC(c2ccccc2)=N/C1=C/N1CCCC1C(=O)O` (centres undefined), the GI50 in experiment [1], in experiment [2], in [3], in experiment [4], in experiment [9] and in [5] was > 100 µM (inactive) throughout. Further, the GI50 in experiment [6], in [7] and in experiment [8] was > 100 µM (inactive) each time.

As for `NNC(=O)C1CCC(=O)N1S(=O)(=O)c1ccccc1` (centres undefined), the GI50 in [1], in experiment [3], in experiment [4], in [5], in experiment [6] and in experiment [7] was > 100 µM (inactive) each time. Moreover, in [8], the GI50 was > 100 µM (inactive).

For `O=C1C=C2S[C@H]3C[C@]2(C=C1Br)C1=C(N3)C(=O)c2[nH]cc3c2C1=NCC3` [(+)-DISCORHABDIN B], the GI50 in [3] was 1.42 µM (inactive); in experiment [9], 1.78 µM (inactive); in [5], 0.19 µM (active); in experiment [6], 1.78 µM (inactive); in experiment [7], 1.17 µM (inactive); in experiment [8], 0.463 µM (active).

Take `CO[C@@H]1C=C[C@@]23c4cc5c(cc4CN(C[C@@H]2O)[C@H]3C1)OCO5` [(+)-HAEMANTHAMINE]: the GI50 in experiment [1] is 16.6 µM (inactive); in experiment [3] it was 16.7 µM (inactive); in [4], 79.6 µM (inactive); in experiment [9] it was 21.8 µM (inactive); in experiment [5], 13.6 µM (inactive); in experiment [6], 52.5 µM (inactive). The GI50 in experiment [8] is 11.7 µM (inactive).

As for `CNC(C)Cc1ccccc1OC` (centres undefined) [METHOXYPHENAMINE HYDROCHLORIDE], the GI50 in experiment [2], in [3], in [4], in experiment [9], in experiment [5] and in experiment [6] was > 100 µM (inactive) throughout. Besides, the GI50 in experiment [7] and in [8] was > 100 µM (inactive) each time.

For `C[C@H]1C[C@@H]2[C@H]([C@@H](O)C[C@@]3(C)[C@H]2CC[C@]3(O)C(=O)CO)[C@@]2(C)C=CC(=O)C=C12` [METHYLPREDNISOLONE], the GI50 in [1], in experiment [4], in experiment [9], in [7] and in experiment [8] was > 100 µM (inactive) throughout.

Source of the values: ChEMBL document CHEMBL1201862, “PubChem BioAssay data set” (2004).
